Read-outs that look alike come from different tables or passages of the source. Values belong to the compound of their own block, whether it stands above or below them.
Key:
[1] = 2 mg/ml/kg into the duodenum
Description: Overnight-fasted Wistar male rats (8 week-old; Nippon Charles River) were subjected to a laparotomy under anesthesia and treated as follows: (1) ligated at 3 cm from the pylorus (n=1), (2) ligated at 6 cm from the pylorus (n=1), and (3) not ligated (no treatment) (n=2).
[1,4-^13C]-succinic acid (ICON) was administered into the duodenum upstream of the ligation at 2 mg/ml/kg. The breath after the administration was collected.
(§1) Briefly, the breath was collected at a rate of about 100 to 300 ml/min using a stroke pump (Variable Stroke Pump VS-500; Shibata Kagaku Kogyo), and the CO2 concentration therein was maintained at about 3%. A Perma Pure Drier (MD-050-12P; Perma Pure INC.) was set between the rat holder and the stroke pump to remove moisture from the breath. When the CO2 concentration was stabilized, the rat under anesthesia was subjected to a laparotomy. After ligation of the pylorus, [1,4-^13C]-succinic acid solution was injected into the duodenum with an injection syringe (1 ml) to thereby achieve administration into the duodenum. A breath sample ([…]) collected with the syringe was sealed in a vacuum vial (10 ml) and subjected to automated analysis by GC-MS (Breath MAT) [FinniganMAT]. Δ^13C (‰) was calculated from δ^13C values which are ^13C values of the breath sample (i.e. differences from the standard substance PDB) using the following formula.
Δ^13C (‰)=(δ^13C)t min−(δ^13 C) 0 min (Formula 1)
• Apparatus: Breath MAT plus (Finnigan) • Carrier gas: He • Measured ions: m/z=44, 45, 46

[2] = 2 mg/ml/kg into the duodenum; remark: listed apart in the source
Description: as §1
Falling out of small intestinal villi was induced in Wistar male rats (9 week-old; n=4; Nippon Charles River) by repeatedly injecting injectable methotrexate (MTX; Takeda Chemical Industries) dissolved in physiological saline between the back and the skull subcutaneously at 2.5 mg/kg/day (see J. Nutr. Vol. 126, p. 2519 (1996); Scand. J. Gastroenterol. Vol. 39 p. 1015 (2004)). The conditions of the repeated administration were 3 day administration, 2 day interval and 3 day administration (total administration period: 6 days) (MTX administration group; n=4). Non-administration group (n=2) was also tested as control group.
On day 9 after the start of MTX administration, [1,4-^13C]-succinic acid (ICON) was administered into the duodenum of overnight-fasted rats under anesthesia at 2 mg/ml/kg to perform a breath test.

[3] = 4 mg/ml/kg femoral vein
Description: (§2) Briefly, STZ was administered to 2-day postnatal rats subcutaneously at a dose of 90 mg/kg. STZ was dissolved in citrate buffer (pH 4.5) in advance, and administration was completed within 5 minutes after the dissolving. Two days thereafter, a blood sample was collected from the heart and subjected to measurement of casual plasma glucose with Terumo Mediace (blood glucose measuring set). Individuals showing a level of 275 mg/dl or more were selected.
(§3) The time course of the increase ratio of ^13C concentration (Δ^13C (‰)) in exhaled CO2 after administration was examined for 20 minutes, and plotted every 5 minutes.

[4] = 13C-labeled sodium acetate breath test, diabetic model rats (nSTZ group) versus control group; details: 10 mg/ml/kg femoral vein
Description: as §2, §3

[5] = rat, in vivo, 2000 mg/kg; cited from earlier work

increase ratio of 13C concentration (Δ13C) in exhaled CO2 ([1]; not ligated rats, at 6 minutes): 130 ‰ | increase ratio of 13C concentration (Δ13C) in exhaled CO2 ([1]; not ligated rats, at 15 minutes): 95 ‰ | increase ratio of 13C concentration (Δ13C) in exhaled CO2 ([1]; rat ligated at 3 cm from the pylorus, at 4 minutes): 14 ‰ | increase ratio of 13C concentration (Δ13C) in exhaled CO2 ([1]; rat ligated at 3 cm from the pylorus, at 6 minutes): 30 ‰ | increase ratio of 13C concentration (Δ13C) in exhaled CO2 ([1]; rat ligated at 3 cm from the pylorus, at 16 minutes): 71 ‰ | increase ratio of 13C concentration (Δ13C) in exhaled CO2 ([1]; rat ligated at 6 cm from the pylorus, at 4 minutes): 33 ‰ | increase ratio of 13C concentration (Δ13C) in exhaled CO2 ([1]; rat ligated at 6 cm from the pylorus, at 6 minutes): 57 ‰ | increase ratio of 13C concentration (Δ13C) in exhaled CO2 ([1]; rat ligated at 6 cm from the pylorus, at 16 minutes): 96 ‰ | increase ratio of 13C concentration (Δ13C) in exhaled CO2 ([2]; MTX administration group, at 15 minutes): 68±37 ‰ | increase ratio of 13C concentration (Δ13C) in exhaled CO2 ([2]; control group (MTX non-administration), at 10 minutes): 154 ‰ | increase ratio of 13C concentration (Δ13C) in exhaled CO2 ([2]; control group (MTX non-administration), at 20 minutes): 81 ‰ | difference in Δ13C between control group and nSTZ group ([3]; 20 minutes breath test): no difference was observed | increase ratio of 13C concentration (Δ13C) in exhaled CO2 ([3]; control group, at 5 minutes): 193±20 ‰ | increase ratio of 13C concentration (Δ13C) in exhaled CO2 ([3]; control group, at 20 minutes): 99±4 ‰ | increase ratio of 13C concentration (Δ13C) in exhaled CO2 ([3]; nSTZ group, at 5 minutes): 202±28 ‰ | increase ratio of 13C concentration (Δ13C) in exhaled CO2 ([3]; nSTZ group, at 20 minutes): 93±4 ‰
SMILES: O=[13C](O)CC[13C](=O)O [[1,4-^13C]-succinic acid]

SMILES: C[13C](=O)[O-].[Na+] [[1-^13C]-sodium acetate]
increase ratio of 13C concentration (Δ13C) in exhaled CO2 ([4]; control group, at 5 minutes): 154±11 ‰ | increase ratio of 13C concentration (Δ13C) in exhaled CO2 ([4]; control group, at 20 minutes): 153±5 ‰ | increase ratio of 13C concentration (Δ13C) in exhaled CO2 ([4]; nSTZ group, at 5 minutes): 214±30 ‰ | increase ratio of 13C concentration (Δ13C) in exhaled CO2 ([4]; nSTZ group, at 20 minutes): 133±2 ‰ | difference in Δ13C between control group and nSTZ group ([4]; values at 5 minutes and at 20 minutes): Significant difference (p<0.005)

SMILES: O=C(O)CCC(=O)O [disodium succinate hexahydrate]
abnormalities in single administration toxicity test [5]: does not cause abnormalities
